US7495027B2, “3-aryl-4-hydroxyfuranone compounds and the human and animal health use thereof” (Wyeth, priority 2003, dated 2009)
In brackets after ≈: the same amount, converted by molar mass. Read-outs that look alike come from different tables or passages of the source.

Experiments:
[1] = biological target: E. coli Enopyruvyl-UPD-N-acetylglucosamine reductase, Mur B (Escherichia coli, UniProt P08373); experiment: biochemical; conditions: (E) E. coli enzyme; for IC50: read-out: MurB IC50 (converted)
Sequence of E. coli Enopyruvyl-UPD-N-acetylglucosamine reductase, Mur B (P08373 whole entry): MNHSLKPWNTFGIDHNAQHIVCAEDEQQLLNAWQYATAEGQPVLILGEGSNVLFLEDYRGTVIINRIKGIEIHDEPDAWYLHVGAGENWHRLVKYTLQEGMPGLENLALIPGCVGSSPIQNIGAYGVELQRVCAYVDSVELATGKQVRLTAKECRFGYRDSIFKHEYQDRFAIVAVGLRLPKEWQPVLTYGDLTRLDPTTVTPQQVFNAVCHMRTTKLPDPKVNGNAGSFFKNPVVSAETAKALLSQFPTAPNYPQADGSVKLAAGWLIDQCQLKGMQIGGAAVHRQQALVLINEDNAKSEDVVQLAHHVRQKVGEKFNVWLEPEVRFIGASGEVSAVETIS
Protocol: S. aureus and E. coli Enopyruvyl-UPD-N-acetylglucosamine reductase, Mur B
Preparation of Tris/BME buffer:
Dilute 17.5 uL of aqueous 5 mM BME (2-mercaptoethanol) to 50 mL with 50 mM Tris/HCl (pH 8.0).
(§1) Preparation of Enzyme Solution:
Dilute aqueous MurB stock solution (0.94 mg/mL) with 200 parts 50 mM Tris/2-BME buffer.
Synthesis of Substrate for MurB (MurA Product EP-UDP-GluNAc):
A mixture of 13 mg UDP-N-acetylglucosamine and 5.5 mg phosphoenolpyruvate are dissolved in 10 mL Tris/BME buffer forming 2 mM concentrations of each reagent in solution.
Preparation of Assay Buffer:
The assay buffer is prepared in water from reagents with the following final concentrations: 100 mM Tris/HCl (pH 8.0), 200 μM NADPH, 100 μM MurB substrate, 10 μM 2-mercaptoethanol, and 10 μM KCl.
Experiments are performed by adding 20 μL of a solution of test compound in a mixture of dimethylsulfoxide and water and 30 μL of enzyme solution to a well. After a pre-incubation period of 20 mins. at 23° C., 50 μL of Tris/BME buffer and 100 μL of assay buffer are added. […] Controls are performed using the same procedure and employing 20 μL of a blank dimethylsulfonide and solvent mixture in place of the test compound solution.
Using these values, the IC50 for each test compound is determined by linear regression analysis.

[2] = biological target: E. coli Uridine-diphosphate-N-acetvimuramoyl: L-alanine lipase, MurC (Escherichia coli, UniProt P17952); experiment: Inhibitory activity against MurC (E. coli); type: biochemical
Sequence of E. coli Uridine-diphosphate-N-acetvimuramoyl: L-alanine lipase, MurC (P17952 whole entry): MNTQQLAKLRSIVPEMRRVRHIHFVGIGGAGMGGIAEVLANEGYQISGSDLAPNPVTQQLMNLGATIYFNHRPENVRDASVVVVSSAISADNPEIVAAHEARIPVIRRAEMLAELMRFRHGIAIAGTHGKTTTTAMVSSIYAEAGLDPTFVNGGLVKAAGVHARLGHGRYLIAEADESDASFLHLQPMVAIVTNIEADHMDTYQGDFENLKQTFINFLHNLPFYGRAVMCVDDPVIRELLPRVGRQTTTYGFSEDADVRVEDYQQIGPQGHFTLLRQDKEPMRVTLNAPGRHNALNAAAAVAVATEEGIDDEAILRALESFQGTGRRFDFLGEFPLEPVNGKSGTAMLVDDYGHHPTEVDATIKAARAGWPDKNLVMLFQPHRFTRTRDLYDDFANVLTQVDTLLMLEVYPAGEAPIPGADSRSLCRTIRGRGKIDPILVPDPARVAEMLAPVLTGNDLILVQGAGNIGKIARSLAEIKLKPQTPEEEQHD
Protocol: S. aureus and E. coli Uridine-diphosphate-N-acetvimuramoyl: L-alanine lipase, MurC
The buffer is prepared from aqueous reagents with the following final concentrations: 83 mM Tris/HCl (pH 8.0), 50 mM MgC12, and 2 mM ATP.
as §1
A 1 mg/mL stock solution of MurC is prepared in a buffer consisting of 20 mM Tris/HCl (pH 8.5) with 2.5 μM BME. The stock solution is further diluted with the buffer to give a final enzyme concentration of 100 μg/mL for the E. coli stock solution and 70 μg/mL for the S. aureus stock solution.
(§2) Preparation of Test Compound Solutions:
(§3) All test solutions are prepared in DMSO as 10 mg/mL, then diluted with 50 mM Tris/HCl (pH 8.5) to 100 μg/mL.
(§4) Preparation of Stop Solution:
The stop solution is prepared by stirring 1 part 4.2% ammonium molydbate in 4N HCl with 2 parts 0.045% malachite green for 30 min.
In this evaluation, the inhibitory activity of a test compound against MurC, the enzyme which catalyzes the third step of bacterial cell wall bioxynthesis is determined. Experiments are performed by adding 2.5 μl buffer, 2.5 μl 0.5M NH4SO2, 5 μl 2 μM L-Ala, 5 μl enzyme solution and 6.5 μl test compound solution to each well in a 96-well microplate. After a pre-incubation period of 10 mins. at 23° C., 3.75 μl of a 0.75 μM solution of UDP-MurNac is added to each well. Following an incubation period of 10 mins. at 37° C., 210 μl stop solution and 50 μl of a 34% w/v sodium citrate solution are added and color is allowed to develop for 10 mins. at 23° C. (Lanzetta et al., Analytical Biochemistry, 1979, 95) Optical density readings are taken at 660 nm using a Molecular Devices Spectra Max 250 with Soft Max software. Controls are performed using the same procedure and omitting the addition of UDP-MurNac.
Using these values the IC50 is determined by linear regression analysis.

Streptococci = experiment: Minimum inhibitory concentration, microdilution broth method, streptococci; type: cell-based; conditions: Mueller-Hinton broth with 5% horse blood, 18-22 hours at 35° C.; for MIC: S. pneumo GC 1894
Protocol: (§5) Evaluation of the Minimum Inhibitory Concentration of Test Compounds Against A Variety of Bacterial Strains
(§6) In this evaluation the minimal inhibitory concentration (MIC) of test compounds against Gram positive and Gram negative bacteria is performed using the microdilution broth method as recommended by the National Committee for Clinical Laboratory Standards (Approved Standards M7-A5 2000). Mueller-Hinton broth is used for the enterobacteriaceae, staphylococci and enterococci. Streptococci are also tested in Mueller-Hinton broth supplemented with 5% horse blood (LHB). Test organisms include recent clinical isolates that are resistant to methicillin, penicillin and/or vancomycin. […].

staphylococci = experiment: Minimum inhibitory concentration, microdilution broth method, staphylococci; type: cell-based; conditions: Mueller-Hinton broth, 18-22 hours at 35° C.; for MIC: Staphylococcus aureus
Protocol: as §5, §6

enterococci = experiment: Minimum inhibitory concentration, microdilution broth method, enterococci; type: cell-based; conditions: Mueller-Hinton broth, 18-22 hours at 35° C.; for MIC: Enterococcus faecalis
Protocol: as §5, §6

[3] = biological target: T1, S. aureus Uridine-diphosphate-N-acetylmuramoyl-L-alanine: D-glutamate liease, MurD (Staphylococcus aureus, UniProt Q2FZ92); experiment: biochemical; conditions: (S) S. aureus enzyme
T1 sequence (Q2FZ92 1-449): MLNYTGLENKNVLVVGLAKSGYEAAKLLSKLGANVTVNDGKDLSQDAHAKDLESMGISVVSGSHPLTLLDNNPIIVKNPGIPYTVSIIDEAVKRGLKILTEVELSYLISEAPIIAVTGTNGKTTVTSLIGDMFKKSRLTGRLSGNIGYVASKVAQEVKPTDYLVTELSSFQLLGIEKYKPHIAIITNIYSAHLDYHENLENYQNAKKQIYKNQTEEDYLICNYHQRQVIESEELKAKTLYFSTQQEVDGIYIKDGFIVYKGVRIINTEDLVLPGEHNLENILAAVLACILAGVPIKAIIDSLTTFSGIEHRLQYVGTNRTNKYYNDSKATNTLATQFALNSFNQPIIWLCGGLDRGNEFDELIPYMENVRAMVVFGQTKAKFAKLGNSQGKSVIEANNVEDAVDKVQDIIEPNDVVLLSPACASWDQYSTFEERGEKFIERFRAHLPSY
Protocol: (§7) S. aureus and E. coli Uridine-diphosphate-N-acetylmuramoyl-L-alanine: D-glutamate liease, MurD
as §1, §2, §3, §4
(§8) In this evaluation, the inhibitory activity of a test compound against MurD, the enzyme which catalyzes the fourth step of bacterial cell wall biosynthesis is determined.

[4] = biological target: E. coli UDP-N-acetylglucosamine enolpyruvoyl transferase, MurA (Escherichia coli, UniProt P0A749); experiment: biochemical; conditions: (E) E. coli enzyme
Sequence of E. coli UDP-N-acetylglucosamine enolpyruvoyl transferase, MurA (P0A749 whole entry): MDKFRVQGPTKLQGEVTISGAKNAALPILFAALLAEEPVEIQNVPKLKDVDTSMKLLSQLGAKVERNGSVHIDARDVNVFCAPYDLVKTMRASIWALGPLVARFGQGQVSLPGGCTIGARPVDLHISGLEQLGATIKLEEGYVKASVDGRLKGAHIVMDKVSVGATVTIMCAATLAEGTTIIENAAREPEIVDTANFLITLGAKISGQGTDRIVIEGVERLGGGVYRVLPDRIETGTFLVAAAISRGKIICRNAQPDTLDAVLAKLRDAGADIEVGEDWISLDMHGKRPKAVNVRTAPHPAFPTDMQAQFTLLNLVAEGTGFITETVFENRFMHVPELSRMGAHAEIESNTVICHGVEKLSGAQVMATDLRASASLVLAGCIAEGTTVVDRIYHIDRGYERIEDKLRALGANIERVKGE
Protocol: Evaluation of the Inhibitory Activity of Test Compounds Against Enzymes which Catalyze Bacterial Cell Wall Biosynthesis
S. aureus and E. coli UDP-N-acetylglucosamine enolpyruvoyl transferase, MurA
as §1
The enzyme solution is prepared by admixing the following: 50 mM Tris/HCl pH 8.0, […] 1 M Tris, 5 mM DTT, […] 1 M DTT, 20% Glycerol 4 ml 50% Glycerol, add water to 10 ml.
as §4
A procedure similar to that described by C. […] Experiments are performed by adding a solution of test compound (in a mixture of dimethylsulfoxide and water) and an enzyme solution to a well. After a pre-incubation period of 10 mintues at 37° C., Tris/BME buffer and assay buffer are added. A start point optical density (OD0) reading is taken at 340 nm immediately following the addition of assay buffer. After incubation for 1 hr at 37° C., the stop solution is added and the color is allowed to develop for 30 minutes.

[5] = biological target: E. coli Uridine-diphosphate-N-acetylmuramoyl-L-alanine: D-glutamate liease, MurD (Escherichia coli, UniProt P14900); experiment: biochemical; conditions: (E) E. coli enzyme
Sequence of E. coli Uridine-diphosphate-N-acetylmuramoyl-L-alanine: D-glutamate liease, MurD (P14900 whole entry): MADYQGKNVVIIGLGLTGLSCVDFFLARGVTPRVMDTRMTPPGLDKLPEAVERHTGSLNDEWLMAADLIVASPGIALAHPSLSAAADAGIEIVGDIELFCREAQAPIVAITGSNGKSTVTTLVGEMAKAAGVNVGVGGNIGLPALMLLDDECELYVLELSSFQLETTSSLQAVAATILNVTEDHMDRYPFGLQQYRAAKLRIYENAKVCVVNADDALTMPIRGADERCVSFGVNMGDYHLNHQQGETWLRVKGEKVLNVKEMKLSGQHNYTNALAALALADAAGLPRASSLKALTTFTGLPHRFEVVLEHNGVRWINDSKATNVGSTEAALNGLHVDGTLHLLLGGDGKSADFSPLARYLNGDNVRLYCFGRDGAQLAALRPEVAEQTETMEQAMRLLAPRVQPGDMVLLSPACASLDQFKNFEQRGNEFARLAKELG
Protocol: as §7
The buffer is prepared from aqueous reagents with the following final concentrations: 83 mM Tris/HCl (pH 8.0), 50 mM MgCl2, and 2 mM ATP.
as §1, §2, §3, §4, §8

[6] = S. aureus GC 1131, read-out: MIC S. aureus GC 1131
[7] = S. aureus GC 4543, read-out: MIC S. aureus GC 4543
[8] = E. faecalis GC 2242, read-out: MIC E. faecalis GC 2242
[9] = E. faecalis GC 4555, read-out: MIC E. faecalis GC 4555
[10] = (E) E. coli enzyme, read-out: MurC IC50 (converted)

SMILES	MurB IC50 [1]	MurC IC50 ([2]; (E) E. coli enzyme)	MIC (Streptococci) [µg/mL]	MIC (staphylococci; [6]) [µg/mL]	MIC (staphylococci; [7]) [µg/mL]	MIC (enterococci; [8]) [µg/mL]	MIC (enterococci; [9]) [µg/mL]	IC50 [3] [µM]	MurA IC50 [4]	IC50 [5] [µM]	IC50 [1] [µM]	IC50 ([2]; MurC IC50, (E) E. coli enzyme) [µM]	IC50 [4] [µM]	IC50 [2, 10] [µM]	MIC S. pneumo GC 1894 (Streptococci) [µg/mL]	MIC S. aureus GC 1131 (staphylococci; S. aureus GC 1131) [µg/mL]	MIC S. aureus GC 4543 (staphylococci; S. aureus GC 4543) [µg/mL]	MIC E. faecalis GC 2242 (enterococci; E. faecalis GC 2242) [µg/mL]	MIC E. faecalis GC 4555 (enterococci; E. faecalis GC 4555) [µg/mL]
O=C1O/C(=C\c2ccc3ccccc3c2)C(O)=C1c1cccc(C(F)(F)F)c1 [Example 8]	11 (E) μg/mL	6 (E) μg/mL	0.25 (≈ 0.654 µM)	8 (≈ 20.9 µM)	8 (≈ 20.9 µM)	4 (≈ 10.5 µM)	16 (≈ 41.8 µM)												
O=C1O/C(=C\c2ccc(-c3ccccc3)cc2)C(O)=C1c1ccc2ccccc2c1 [Example 45]	2 (E) μg/mL	10 (E) μg/mL	2 (≈ 5.12 µM)	16 (≈ 41 µM)	4 (≈ 10.2 µM)	4 (≈ 10.2 µM)	8 (≈ 20.5 µM)	> 64											
O=C1O/C(=C\c2cccc(C(F)(F)F)c2)C(O)=C1c1cccc2ccccc12 [Example 48]		13 (E) μg/mL	8 (≈ 20.9 µM)	32 (≈ 83.7 µM)	64 (≈ 167 µM)	32 (≈ 83.7 µM)	> 128												
O=C1O/C(=C\c2ccc(-c3ccccc3)cc2)C(O)=C1c1cccc2ccccc12 [Example 50]		9 (E) μg/mL	4 (≈ 10.2 µM)	8 (≈ 20.5 µM)	4 (≈ 10.2 µM)	8 (≈ 20.5 µM)	32 (≈ 82 µM)		16 (E) μg/mL										
O=C1O/C(=C\c2ccccc2C(F)(F)F)C(O)=C1c1ccc(-c2ccccc2)cc1 [Example 99, 3-[1.1′-Biphenyl]-4-yl-4-hydroxy-5-{(Z)-[2-(trifluoromethyl)benzylidene]}-5H-furan-2-one]			0.25 (≈ 0.612 µM)	4 (≈ 9.79 µM)	2 (≈ 4.9 µM)	4 (≈ 9.79 µM)	16 (≈ 39.2 µM)			> 61.2	14.7	9.79	9.79						
O=C1O/C(=C\c2cc(F)cc(C(F)(F)F)c2)C(O)=C1c1cccc(-c2ccccc2)c1 [Example 109]			0.25 (≈ 0.586 µM)	2 (≈ 4.69 µM)	2 (≈ 4.69 µM)	1 (≈ 2.35 µM)	4 (≈ 9.38 µM)			> 58.6	9.38			23.5					
O=C1O/C(=C\c2cc(F)cc(C(F)(F)F)c2)C(O)=C1c1ccc(-c2ccccc2)c(F)c1 [Example 110]			0.25 (≈ 0.563 µM)	2 (≈ 4.5 µM)	2 (≈ 4.5 µM)	1 (≈ 2.25 µM)	4 (≈ 9 µM)			42.8	11.3		15.8	20.3					
CCCc1ccc(-c2ccc(C3=C(O)/C(=C/c4cc(F)cc(C(F)(F)F)c4)OC3=O)cc2)cc1 [Example 111]			0.25 (≈ 0.534 µM)	32 (≈ 68.3 µM)	16 (≈ 34.2 µM)	1 (≈ 2.13 µM)	16 (≈ 34.2 µM)			> 53.4	23.5		> 53.4	> 53.4					
O=C1O/C(=C\c2cc(F)cc(C(F)(F)F)c2)C(O)=C1c1cccc(-c2ccccc2)c1 [Example 112]										> 58.6	11.7			23.5	0.25 (≈ 0.586 µM)	2 (≈ 4.69 µM)	4 (≈ 9.38 µM)	2 (≈ 4.69 µM)	8 (≈ 18.8 µM)
O=C1O/C(=C\c2cc(C(F)(F)F)ccc2F)C(O)=C1c1cccc(-c2ccccc2)c1 [Example 121]			0.5 (≈ 1.17 µM)	4 (≈ 9.38 µM)	2 (≈ 4.69 µM)	8 (≈ 18.8 µM)	16 (≈ 37.5 µM)				16.4		21.1	21.1					
O=C1O/C(=C\c2cccc(C(F)(F)F)c2)C(O)=C1c1ccc(-c2ccccc2)cc1 [Example 130]		8 (E) μg/mL	0.5 (≈ 1.22 µM)	4 (≈ 9.79 µM)	4 (≈ 9.79 µM)	8 (≈ 19.6 µM)	4 (≈ 9.79 µM)		17 (E) μg/mL		22								
O=C1O/C(=C\c2ccc(Cl)cc2)C(O)=C1c1ccc(-c2ccccc2)cc1 [Example 139]		16 (E) μg/mL	1 (≈ 2.67 µM)	16 (≈ 42.7 µM)	16 (≈ 42.7 µM)	4 (≈ 10.7 µM)	8 (≈ 21.3 µM)				16								
